Results as given in US6861448B2, “NAD synthetase inhibitors and uses thereof” (priority 1998, dated 2005).
Read-outs that look alike come from different tables or passages of the source.

Target: NAD synthetase (Bacillus subtilis, UniProt P08164)
Assay: NAD synthetase coupled enzyme assay
Type: biochemical
From the text: This Example illustrates the NAD synthetase enzyme inhibiting activity of some compounds of the present invention. [drawing 48] The coupled assay—production of NAD was monitored through conversion to NADH by alcohol dehydrogenase. [NADH] was monitored by 2 parallel methods: the change in absorbance at 340 nm, and fluorescence at 460 nm (excitation 320 nm). […] Controls were included for determining inhibitor background, precipitation, and ADH inhibition.

[1] = NAD synthetase 2.0 μg/mL, 0.1 mM NaAD, 0.2 mM ATP, pH 8.5

NAD synthetase, sequence (P08164 whole entry): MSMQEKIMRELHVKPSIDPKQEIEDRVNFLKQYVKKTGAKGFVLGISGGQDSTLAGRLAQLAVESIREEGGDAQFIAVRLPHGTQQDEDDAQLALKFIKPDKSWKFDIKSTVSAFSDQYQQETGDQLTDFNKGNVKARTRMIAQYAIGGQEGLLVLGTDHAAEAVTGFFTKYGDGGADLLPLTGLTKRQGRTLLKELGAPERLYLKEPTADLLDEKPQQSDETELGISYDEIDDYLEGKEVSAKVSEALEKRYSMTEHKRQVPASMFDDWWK

SMILES | IC50 [1] [µM] | IC50 [µM]
C[N+](C)(C)c1ccc(CC(=O)NCCCCCCCCOc2ccc(OC(=O)c3cc(Cl)cc(Cl)c3)cc2)cc1 [Compound 1637] | 23.3 | 
C[N+](C)(C)c1ccc(CC(=O)OCCCCCCCCOc2cccc(OCc3ccccc3)c2)cc1 [Compound 1169] | 36.2 | 
C[n+]1cccc(C(=O)NCCCCCCCCOc2ccc(OC(=O)c3cc(F)c(F)c(F)c3)cc2)c1 [Compound 1678] | 36.5 | 
C[N+](C)(C)c1ccc(CC(=O)OCCCCCCCCCOc2ccc(OCc3ccccc3)cc2)cc1 [Compound 1321] | 22 | 
C[N+](C)(C)C(Cc1ccccc1)C(=O)OCCCCCCCn1ccc2cc(OCc3ccccc3)ccc21 (centres unmarked) [Compound 1408] | 30.5 | 
N=C(N)N[C@@H](Cc1ccccc1)C(=O)NCCCCCCCCOc1ccc(OCc2ccccc2)cc1 [Compound 1681] | 12.9 | 
C[n+]1cccc(C(=O)NCCCCCCCCOc2ccc(OC(=O)c3ccc(Cl)cc3)cc2)c1 [Compound 1653] | 19.5 | 
C[N+](C)(C)C(Cc1ccccc1)C(=O)NCCCCCCCCOc1ccc(OC(=O)c2ccc(F)cc2F)cc1 (centres unmarked) [Compound 1610] | 30.4 | 
CC(=O)Nc1ccc(C(=O)Oc2ccc(OCCCCCCCCOC(=O)C(Cc3ccccc3)[N+](C)(C)C)cc2)cc1 (centres unmarked) [Compound 1482] | 26.2 | 
C[N+](C)(C)c1ccc(CCCC(=O)OCCCCCCCCOc2ccc(OCc3ccccc3)cc2)cc1 [Compound 1264] | 38.1 | 
C[N+](C)(C)c1ccc(CC(=O)NCCCCCCCCOc2ccc(OC(=O)c3cccc(Cl)c3)cc2)cc1 [Compound 1623] | 33.9 | 
CC(C)(C)OC(=O)C(Cc1cn(CCCCCCCCOc2ccc(OCc3ccccc3)cc2)c2ccccc12)[N+](C)(C)C (centres unmarked) [Compound 1494] | 12.5 | 
C[n+]1cccc(C(=O)NCCCCCCCCOc2ccc(OC(=O)c3ccc(Cl)c(Cl)c3)cc2)c1 [Compound 1665] | 19.6 | 
COc1ccccc1COc1ccc(OCCCCCCCCOC(=O)Cc2ccc([N+](C)(C)C)cc2)cc1 [Compound 1393] | 36.7 | 
C[N+](C)(C)C(Cc1ccccc1)C(=O)OCCCCCCCCOc1ccc2c(c1)C(=O)CC(c1ccccc1)O2 (mixture of isomers) [Compound 1370] | 16.9 | 
CC(C)Oc1ccc(C(=O)Oc2ccc(OCCCCCCCCOC(=O)C(Cc3ccccc3)[N+](C)(C)C)cc2)cc1 (centres unmarked) [Compound 1477] | 14 | 
C[N+](C)(C)C(Cc1ccccc1)C(=O)NCCCCCCCCOc1ccc(OC(=O)c2ccccc2F)cc1 (centres unmarked) [Compound 1596] | 28 | 
C[N+](C)(C)C(Cc1ccccc1)C(=O)NCCCCCCCCOc1ccc(OC(=O)c2cc(Cl)ccc2Cl)cc1 (centres unmarked) [Compound 1605] | 21 | 
C[N+](C)(C)C(Cc1ccccc1)C(=O)NCCCCCCCCOc1ccc(OC(=O)c2cccc(F)c2F)cc1 (centres unmarked) [Compound 1609] | 20.7 | 
C[N+](C)(C)C(Cc1ccccc1)C(=O)NCCCCCCCCOc1ccc(OC(=O)c2cc(F)c(F)c(F)c2)cc1 (centres unmarked) [Compound 1621] | 25.5 | 
C[N+](C)(C)C(Cc1ccccc1)C(=O)OCCCCCCCCOc1ccc(OCc2ccccc2)cc1 (centres unmarked) [Compound 1338] | 23 | 
C[N+](C)(C)C(Cc1ccccc1)C(=O)NCCCCCCCCOc1ccc(OC(=O)c2cc(Cl)cc(Cl)c2)cc1 (centres unmarked) [Compound 1608] | 26.3 | 
C[N+](C)(C)c1ccc(CC(=O)NCCCCCCCCOc2ccc(OC(=O)c3ccc(Cl)cc3Cl)cc2)cc1 [Compound 1633] | 20.4 | 

SMILES | IC50 [1] [µM] | IC50 [µM]
CC(=O)Oc1ccc(C(=O)Oc2ccc(OCCCCCCCCOC(=O)C(Cc3ccccc3)[N+](C)(C)C)cc2)cc1 (centres unmarked) [Compound 1475] | 22.6 | 
C[N+](C)(C)C(Cc1ccccc1)C(=O)NCCCCCCCCOc1ccc(OC(=O)c2cccc(Cl)c2Cl)cc1 (centres unmarked) [Compound 1603] | 34.9 | 
COc1cccc(COc2ccc(OCCCCCCCCOC(=O)C(Cc3ccccc3)[N+](C)(C)C)cc2)c1 (centres unmarked) [Compound 1388] | 14.5 | 
N=C(N)N[C@H](COCCCCCCCCOc1ccc(OCc2ccccc2)cc1)Cc1ccccc1 [Compound 1680] | 10.1 | 
C[N+](C)(C)C(Cc1ccccc1)C(=O)OCCCCCCCCOc1ccc(OCc2ccccc2Cl)cc1 (centres unmarked) [Compound 1390] | 14.2 | 
COc1ccccc1COc1ccc(OCCCCCCCCOC(=O)C(Cc2ccccc2)[N+](C)(C)C)cc1 (centres unmarked) [Compound 1387] | 20.5 | 
C[N+](C)(C)c1ccc(CC(=O)NCCCCCCCCOc2ccc(OCc3cccc(Cl)c3)cc2)cc1 [Compound 1421] | 34.8 | 
N=C(N)N[C@H](COCCCCCCCCOc1ccc(OCc2ccccc2)cc1)Cc1ccccc1 [Compound 1679] |  | 10.4
C[N+]1([C@@H](Cc2ccccc2)C(=O)OCCCCCCCCOc2ccc(OCc3ccccc3)cc2)CCCCC1 [Compound 1337] | 20.3 | 
CC(C)Oc1ccc(C(=O)Oc2ccc(OCCCCCCCCNC(=O)Cc3ccc([N+](C)(C)C)cc3)cc2)cc1 [Compound 1629] | 21.1 | 
C[N+](C)(C)c1ccc(CC(=O)OCCCCCCCCn2ccc3cccc(OCc4ccccc4)c32)cc1 [Compound 1127] | 23 | 
C[N+](C)(C)C(Cc1ccccc1)C(=O)OCCCCCCCCOc1ccc(OC(=O)c2ccc(C#N)cc2)cc1 (centres unmarked) [Compound 1479] | 18.6 | 
CC(=O)Oc1ccc(C(=O)Oc2ccc(OCCCCCCCCNC(=O)C(Cc3ccccc3)[N+](C)(C)C)cc2)cc1 (centres unmarked) [Compound 1599] | 44 | 
C[N+](C)(C)c1ccc(CC(=O)OCCCCCCCCCCCOc2ccc(OCc3ccccc3)cc2)cc1 [Compound 1323] | 48.2 | 
C[N+](C)(C)c1ccc(CC(=O)NCCCCCCCCOc2ccc(OC(=O)c3ccc(Cl)cc3)cc2)cc1 [Compound 1624] | 31.2 | 
C[N+](C)(C)C(Cc1ccccc1)C(=O)NCCCCCCCCOc1ccc(OC(=O)c2cccc(F)c2)cc1 (centres unmarked) [Compound 1597] | 21.3 | 
CC[N+]1([C@@H](Cc2ccccc2)C(=O)OCCCCCCCCOc2ccc(OCc3ccccc3)cc2)CCCC1 [Compound 1442] | 21.4 | 
C[N+](C)(C)c1ccc(CC(=O)NCCCCCCCCOc2ccc(OC(=O)c3ccccc3Cl)cc2)cc1 [Compound 1622] | 34.2 | 
C[N+](C)(C)c1ccc(CC(=O)NCCCCCCCCOc2ccc(OC(=O)c3cc(Cl)cc(Cl)c3Cl)cc2)cc1 [Compound 1644] | 23.9 | 
COC(=O)c1ccc(OCCCCCCCCOC(=O)Cc2ccc([N+](C)(C)C)cc2)cc1OCc1ccccc1 [Compound 1186] | 46.1 | 
C[n+]1cccc(C(=O)NCCCCCCCCOc2ccc(OC(=O)c3cccc(Cl)c3Cl)cc2)c1 [Compound 1661] | 23.7 | 
C[N+](C)(C)c1ccc(CC(=O)NCCCCCCCCOc2ccc(OC(=O)c3cc(F)c(F)c(F)c3)cc2)cc1 [Compound 1650] | > 50 | 
C[N+](C)(C1CCOCC1)[C@@H](Cc1ccccc1)C(=O)OCCCCCCCCOc1ccc(OCc2ccccc2)cc1 [Compound 1358] | 46.6 | 

SMILES | IC50 [1] [µM] | IC50 [µM]
C[N+](C)(C)[C@@H](Cc1c[nH]c2ccccc12)C(=O)OCCCCCCCCOc1ccc(OCc2ccccc2)cc1 [Compound 1491] | 19.9 | 
C[N+]1([C@@H](Cc2ccccc2)C(=O)NCCCCCCCCOc2ccc(OCc3ccccc3)cc2)CCCC1 [Compound 1495] | 33.4 | 
C[N+](C)(C)C(Cc1ccccc1)C(=O)NCCCCCCCCOc1ccc(OC(=O)c2c(Cl)cccc2Cl)cc1 (centres unmarked) [Compound 1606] | 39.1 | 
C[N+](C)(C)C(Cc1ccccc1)C(=O)NCCCCCCCCOc1ccc(OC(=O)c2cc(F)cc(F)c2)cc1 (centres unmarked) [Compound 1614] | 23.1 | 
C[N+](C)(C)c1ccc(CC(=O)OCCCCCCCCOc2ccc(OCc3ccccc3Cl)cc2)cc1 [Compound 1396] | 15.1 | 
C[n+]1cccc(C(=O)NCCCCCCCCOc2ccc3c(c2)C(=O)CC(c2ccccc2)O3)c1 (centres unmarked) [Compound 1448] | 30.7 | 
C[N+](C)(C)c1ccc(CC(=O)OCCCCCCCCOc2ccc(OCc3cccc(Cl)c3)cc2)cc1 [Compound 1397] | 16.9 | 
N=C(N)N[C@@H](Cc1ccccc1)C(=O)NCCCCCCCCOc1ccc(OCc2ccccc2)cc1 [Compound 1682] | 17.6 | 
C[N+](C)(C)C(Cc1ccccc1)C(=O)NCCCCCCCCOc1ccc(OC(=O)c2cc(F)c(F)cc2F)cc1 (centres unmarked) [Compound 1619] | 22.3 | 
C[N+](C)(C)c1ccc(CC(=O)NCCCCCCCCOc2ccc(OC(=O)c3cccc(Cl)c3Cl)cc2)cc1 [Compound 1632] | 18.5 | 
C[N+](C)(C)C(Cc1ccccc1)C(=O)NCCCCCCCCOc1ccc(OC(=O)c2ccc(Cl)cc2Cl)cc1 (centres unmarked) [Compound 1604] | 21.1 | 
C[N+](C)(C)C(Cc1ccccc1)C(=O)NCCCCCCCCOc1ccc(OC(=O)c2cc(Cl)cc(Cl)c2Cl)cc1 (centres unmarked) [Compound 1615] | 22.3 | 
C[n+]1cccc(C(=O)NCCCCCCCCOc2ccc(OC(=O)c3c(Cl)cccc3Cl)cc2)c1 [Compound 1664] | 19.9 | 
CN(CCCCCCCCOc1ccc(OCc2ccccc2)cc1)C[C@H](Cc1ccccc1)[N+](C)(C)C [Compound 1499] | 26.8 | 
C[n+]1cccc(C(=O)NCCCCCCCCOc2ccc(OC(=O)c3cc(Cl)ccc3Cl)cc2)c1 [Compound 1663] | 18.4 | 
C[N+](C)(C)C(Cc1ccc([N+](=O)[O-])cc1)C(=O)OCCCCCCCCOc1ccc(OCc2ccccc2)cc1 (centres unmarked) [Compound 1405] | 18.8 | 
C[N+](C)(C)c1ccc(CC(=O)OCCCCCCCOC(=O)c2ccc(OCc3ccccc3)cc2)cc1 [Compound 1359] | 42.2 | 
C[N+](C)(C)c1ccc(CC(=O)NCCCCCCCCOc2ccc(OC(=O)c3c(Cl)cccc3Cl)cc2)cc1 [Compound 1635] | 35.1 | 
C[n+]1cccc(C(=O)NCCCCCCCCOc2ccc(OCc3cccc(Cl)c3)cc2)c1 [Compound 1422] | 27.9 | 
COc1ccc(COc2ccc(OCCCCCCCCOC(=O)C(Cc3ccccc3)[N+](C)(C)C)cc2)cc1 (centres unmarked) [Compound 1389] | 45.5 | 
C[N+](C)(C)c1ccc(CC(=O)NCCCCCCCCOc2ccc(OC(=O)c3c(Cl)cc(Cl)cc3Cl)cc2)cc1 [Compound 1645] | 18.1 | 
CSc1ccc(C(=O)Oc2ccc(OCCCCCCCCOC(=O)C(Cc3ccccc3)[N+](C)(C)C)cc2)cc1 (centres unmarked) [Compound 1478] | 15.8 | 
